What was measured:
[1] = Pharmacokinetic properties in mouse after single intravenous and oral administration; details: for half-life / Cmax / clearance / Vd: female, iv, 0.2 mg/kg; for clearance: CL; for clearance / Vd: iv administration; for Vd: Vss
Protocol: Female Wistar rats/mice (n=6) received either a single intravenous (bolus) injection or an oral administration (by gavage) of the tested compound.
The concentrations of the compounds in plasma, feces were quantified using an UPLC method with tandem mass spectrometric detection (LC-MS/MS) previously developed at the ‘Institute of Drug Metabolism and Pharmacokinetics’. […] The detection of the compounds was performed using multiple reaction monitoring in the positive ionization mode. Plasma samples were spiked with internal standard (20 μl) and the analyte was extracted from the matrix using tertiary-butyl methyl ether (tBME). The organic phase was evaporated to dryness under a stream of nitrogen. The residue was dissolved in acetonitrile/0.1% formic acid for LC-MS/MS analysis. Feces samples were homogenized with 4-times their volume of an ethanol/water mixture (4:1, v/v). Aliquots of the aqueous-ethanolic extracts were spiked with internal standard, diluted with acetonitrile/water (1:1, v/v) and directly injected into the LC-MS/MS system.
Pharmacokinetic parameters Cmax and tmax were taken from the observed data. […] AUC values were calculated by non-compartmental analysis using the linear up/log down method. Numerical data for mean plasma concentrations and derived pharmacokinetic parameters were rounded to 3 significant digits for presentation.

human A2B receptor = target: T1, human A2B receptor (Homo sapiens, UniProt P29275); test: cAMP (HTRF) functional assay, recombinant HEK293 cells expressing human A2B receptor, agonist NECA; type: cell-based
T1 construct: expressed in transfected cells; host or cells: HEK293
T1 sequence (P29275 1-332): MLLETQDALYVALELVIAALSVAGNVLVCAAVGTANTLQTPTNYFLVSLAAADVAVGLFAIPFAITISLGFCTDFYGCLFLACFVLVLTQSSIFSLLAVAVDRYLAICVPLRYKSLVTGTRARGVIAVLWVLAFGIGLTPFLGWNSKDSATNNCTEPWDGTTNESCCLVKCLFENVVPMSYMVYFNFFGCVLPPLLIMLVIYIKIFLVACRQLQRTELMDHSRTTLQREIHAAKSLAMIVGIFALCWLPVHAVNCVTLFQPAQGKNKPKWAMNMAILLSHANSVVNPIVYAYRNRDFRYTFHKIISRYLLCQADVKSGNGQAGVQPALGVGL
Method in brief: (§1)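 cAMP readout by HTRF after 30 min exposure of cells to forskolin, compound and agonist; data normalized vs inhibitor ctrl and DMSO (neutral) ctrl, then fitted.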

human A1 receptor = target: T2, human A1 receptor (Homo sapiens, UniProt P30542); test: cAMP (HTRF) functional assay, recombinant CHO cells expressing human A1 receptor, forskolin + agonist CPA; type: cell-based
T2 construct: expressed in transfected cells; host or cells: CHO
T2 sequence (P30542 1-326): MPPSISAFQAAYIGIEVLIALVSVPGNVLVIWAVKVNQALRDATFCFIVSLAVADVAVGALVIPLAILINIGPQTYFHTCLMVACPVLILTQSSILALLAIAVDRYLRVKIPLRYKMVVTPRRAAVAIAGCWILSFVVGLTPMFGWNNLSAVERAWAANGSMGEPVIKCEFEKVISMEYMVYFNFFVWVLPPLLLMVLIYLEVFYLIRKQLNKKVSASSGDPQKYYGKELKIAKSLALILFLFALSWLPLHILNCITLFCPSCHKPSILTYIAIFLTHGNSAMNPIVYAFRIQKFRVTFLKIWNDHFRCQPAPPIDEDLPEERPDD
Method in brief: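 CHO cells (hA1 or hA3) + forskolin + test cpd + agonist (CPA/A1, IB-MECA/A3), 30 min; HTRF cAMP readout; normalized vs inhibitor and DMSO controls, curve fit.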

human A3 receptor = target: T3, human A3 receptor (Homo sapiens, UniProt P0DMS8); test: cAMP (HTRF) functional assay, recombinant CHO cells expressing human A3 receptor, forskolin + agonist IB-MECA; type: cell-based
T3 construct: expressed in transfected cells; host or cells: CHO
T3 sequence (P0DMS8 1-318): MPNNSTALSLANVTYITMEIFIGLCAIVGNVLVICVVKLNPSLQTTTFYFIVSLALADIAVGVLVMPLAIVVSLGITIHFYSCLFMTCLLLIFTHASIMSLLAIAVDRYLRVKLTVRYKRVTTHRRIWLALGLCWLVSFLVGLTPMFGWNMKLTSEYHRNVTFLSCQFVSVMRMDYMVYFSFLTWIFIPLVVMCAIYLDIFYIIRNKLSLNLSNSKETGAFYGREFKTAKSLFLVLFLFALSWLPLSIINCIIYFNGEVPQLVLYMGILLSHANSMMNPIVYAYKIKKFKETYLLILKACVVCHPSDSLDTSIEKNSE
Protocol: The functional activities of human A2A, A2B, A1 and A3 receptors were determined by quantification of cAMP, being the second messenger for adenosine receptors.
For human A1 and A3 receptors, recombinant CHO cells, expressing either A1 or A3-receptor, were used. As both receptors couple to Gi proteins, the assay protocol was adapted:
Cells were seeded into 384-well plates, forskolin, test compounds and agonists (CPA for A1- and IB-MECA for A3-receptor) were added. After 30 min incubation, HTRF reagents (cAMP dynamic 2, Cis Bio) were added and the cellular cAMP levels were determined using the ENVISION (Perkin Elmer) plate reader. Obtained raw data were normalized against the inhibitor control and the neural control (DMSO) and the normalized data were fitted using GeneData software.

human A2A receptor = target: T4, human A2A receptor (Homo sapiens, UniProt P29274); test: cAMP (HTRF) functional assay, recombinant HEK293 cells expressing human A2A receptor, agonist NECA; type: cell-based
T4 construct: expressed in transfected cells; host or cells: HEK293
T4 sequence (P29274 whole entry): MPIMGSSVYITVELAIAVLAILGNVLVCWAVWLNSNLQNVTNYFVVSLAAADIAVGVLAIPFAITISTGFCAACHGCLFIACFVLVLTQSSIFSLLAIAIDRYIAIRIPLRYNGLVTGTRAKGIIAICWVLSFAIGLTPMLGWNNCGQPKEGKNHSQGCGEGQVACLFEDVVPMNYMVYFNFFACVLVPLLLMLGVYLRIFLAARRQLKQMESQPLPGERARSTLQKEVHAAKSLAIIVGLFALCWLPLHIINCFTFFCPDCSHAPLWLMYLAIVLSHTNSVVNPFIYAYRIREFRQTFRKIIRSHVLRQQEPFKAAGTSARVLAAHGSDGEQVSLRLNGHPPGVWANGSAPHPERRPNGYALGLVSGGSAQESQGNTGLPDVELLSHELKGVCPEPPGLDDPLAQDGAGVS
Method in brief: as §1

Structure (SMILES) | Feces iv ([1]; % of dose in feces after iv, @0.2 (iv dose 0.2 mg/kg)) | half-life ([1]; in vivo) | Cmax ([1]; plasma) | clearance ([1]; plasma) | Vd ([1]; plasma) | Cmax ([1]; in vivo) | IC50 (human A2B receptor) | IC50 (human A1 receptor) | IC50 (human A3 receptor) | IC50 (human A2A receptor)
COCCn1cc(C(=O)Nc2nc3c(OC)ccc(N4CCOCC4)c3s2)cn1 [Benzothiazole analogue to No. 4, reference compound] | 2.6@0.2% | 19.9 min | 940 ng/mL | 36.3 mL/min/kg | 0.946 L/kg | – | – | – | – | –
COc1ncc(N2CCOCC2)c2sc(NC(=O)N3CCC(C)(O)CC3)nc12 [compound 1, 4-Hydroxy-4-methyl-piperidine-1-carboxylic acid (4-methoxy-7-morpholin-4-yl-thiazolo[4,5-c]pyridin-2-yl)-amide] | – | 10.3 min | – | 114 mL/min/kg | 1.45 L/kg | 449 ng/mL | – | – | – | –
COCc1ccc(C(=O)Nc2nc3c(OC)ncc(N4CCOCC4)c3s2)cc1 [compound 3, 4-Methoxymethyl-N-(4-methoxy-7-morpholin-4-yl-thiazolo[4,5-c]pyridin-2-yl)-benzamide] | – | – | – | – | – | – | < 1 µM | > 1 µM | < 1 µM | < 0.01 µM
COc1ncc(-c2cccc(F)c2)c2sc(NC(=O)N3CCC4(CCOCC4)C3)nc12 [compound 194, 8-Oxa-2-aza-spiro[4.5]decane-2-carboxylic acid [7-(3-fluoro-phenyl)-4-methoxy-thiazolo[4,5-c]pyridin-2-yl]-amide] | – | – | – | – | – | – | < 0.1 µM | < 1 µM | > 1 µM | < 0.01 µM
COc1ncc(N2CCOCC2)c2sc(NC(=O)N3CCC(O)(Cc4ccccc4)CC3)nc12 [compound 7, 4-benzyl-4-hydroxy-N-[4-methoxy-7-(morpholin-4-yl)-[1,3]thiazolo[4,5-c]pyridin-2-yl]piperidine-1-carboxamide] | – | – | – | – | – | – | < 0.1 µM | < 1 µM | > 1 µM | < 0.1 µM
COc1ncc(C2CCOCC2)c2sc(NC(=O)c3cnc(N)s3)nc12 [compound 241, 2-amino-N-[4-methoxy-7-(oxan-4-yl)-[1,3]thiazolo[4,5-c]pyridin-2-yl]-1,3-thiazole-5-carboxamide] | – | – | – | – | – | – | < 0.01 µM | < 1 µM | < 1 µM | < 0.01 µM
COc1ncc(-c2ccccc2)c2sc(NC(=O)N3CCC4(CCOC4)C3)nc12 (centres unmarked) [compound 54, 2-Oxa-7-aza-spiro[4.4]nonane-7-carboxylic acid (4-methoxy-7-phenyl-thiazolo[4,5-c]pyridin-2-yl)-amide] | – | – | – | – | – | – | < 0.1 µM | < 1 µM | > 1 µM | < 0.01 µM
COCCn1cc(C(=O)Nc2nc3c(OC)ncc(C4CCOCC4)c3s2)cn1 [compound 29, 1-(2-Methoxy-ethyl)-1H-pyrazole-4-carboxylic acid [4-methoxy-7-(tetrahydro-pyran-4-yl)-thiazolo[4,5-c]pyridin-2-yl]-2-amide] | – | – | – | – | – | – | < 0.1 µM | < 1 µM | < 1 µM | < 0.01 µM
COc1ncc(-c2cnn(C)c2)c2sc(NC(=O)N3CCC(C)(O)CC3)nc12 [compound 21, 4-Hydroxy-4-methyl-piperidine-1-carboxylic acid [4-methoxy-7-(1-methyl-1H-pyrazol-4-yl)-thiazolo[4,5-c]pyridin-2-yl]-amide] | – | – | – | – | – | – | < 0.1 µM | < 1 µM | < 1 µM | < 0.01 µM
COc1ncc(-c2cnn(C)c2)c2sc(NC(=O)C3CC3)nc12 [compound 179, Cyclopropanecarboxylic acid [4-methoxy-7-(1-methyl-1H-pyrazol-4-yl)-thiazolo[4,5-c]pyridin-2-yl]-amide] | – | – | – | – | – | – | < 0.1 µM | > 1 µM | < 1 µM | < 0.01 µM
COc1ncc(-c2cnn(C)c2)c2sc(NC(=O)N3CCC4(CCOC4)C3)nc12 (centres unmarked) [compound 82, 2-Oxa-7-aza-spiro[4.4]nonane-7-carboxylic acid [4-methoxy-7-(1-methyl-1H-pyrazol-4-yl)-thiazolo[4,5-c]pyridin-2-yl]-amide] | – | – | – | – | – | – | < 0.1 µM | > 1 µM | > 1 µM | < 0.01 µM
COc1ncc(-c2ccccc2)c2sc(NC(=O)c3cnc(C)s3)nc12 [compound 190, 2-Methyl-thiazole-5-carboxylic acid (4-methoxy-7-phenyl-thiazolo[4,5-c]pyridin-2-yl)-amide] | – | – | – | – | – | – | < 0.1 µM | < 1 µM | < 1 µM | < 0.01 µM
COc1ncc(-c2ccccc2)c2sc(NC(=O)N3CC[C@]4(CCOC4)C3)nc12 [compound 207, (S)-2-Oxa-7-aza-spiro[4.4]nonane-7-carboxylic acid (4-methoxy-7-phenyl-thiazolo[4,5-c]pyridin-2-yl)-amide] | – | – | – | – | – | – | < 0.1 µM | < 1 µM | > 1 µM | < 0.01 µM
COc1ncc(N2CCOCC2)c2sc(NC(=O)N3CC[C@@]4(CCOC4)C3)nc12 [compound 18, (5R)-N-[4-methoxy-7-(morpholin-4-yl)-[1,3]thiazolo[4,5-c]pyridin-2-yl]-2-oxa-7-azaspiro[4.4]nonane-7-carboxamide] | – | – | – | – | – | – | < 1 µM | > 1 µM | > 1 µM | < 0.01 µM
COc1ncc(-c2ccccc2)c2sc(NC(=O)[C@H]3C[C@@H]3OC)nc12 (racemic) [compound 202, (1S,2S)-2-methoxy-N-{4-methoxy-7-phenyl-[1,3]thiazolo[4,5-c]pyridin-2-yl}cyclopropane-1-carboxamide] | – | – | – | – | – | – | < 0.1 µM | < 1 µM | < 1 µM | < 0.1 µM
COc1ncc(-c2ccccc2)c2sc(NC(=O)N3CC[C@]4(CCCOC4)C3)nc12 [compound 205, (R)-7-Oxa-2-aza-spiro[4.5]decane-2-carboxylic acid (4-methoxy-7-phenyl-thiazolo[4,5-c]pyridin-2-yl)-amide] | – | – | – | – | – | – | < 0.1 µM | > 1 µM | > 1 µM | < 0.01 µM
